Source: patent US20260317324A1, “BIFUNCTIONAL COMPOUNDS FOR DEGRADING BRAF VIA UBIQUITIN PROTEOSOME PATHWAY” (Nurix Therapeutics, Inc., priority 2023, published 2026)

Legend:
Format in all cases: cell-based
BRAF V600E = molecular target: T1, BRAF V600E (Homo sapiens, UniProt P15056, V600E); assay: BRAF HiBiT degradation assay, C-terminal HiBiT-tagged BRAF V600E A375 cells (clone 1F10), Nano-Glo HiBiT Lytic assay; conditions: for Dmax: A-375
T1 construct: endogenous C-terminal HiBiT fusion tag on BRAF V600E allele; endogenous in cells; host or cells: A375 clone 1F10 (CRISPR-Cas9 knock-in of the HiBiT tag; parental A375 from ATCC)
T1 sequence (P15056 whole entry V600E, the tested form may be a part): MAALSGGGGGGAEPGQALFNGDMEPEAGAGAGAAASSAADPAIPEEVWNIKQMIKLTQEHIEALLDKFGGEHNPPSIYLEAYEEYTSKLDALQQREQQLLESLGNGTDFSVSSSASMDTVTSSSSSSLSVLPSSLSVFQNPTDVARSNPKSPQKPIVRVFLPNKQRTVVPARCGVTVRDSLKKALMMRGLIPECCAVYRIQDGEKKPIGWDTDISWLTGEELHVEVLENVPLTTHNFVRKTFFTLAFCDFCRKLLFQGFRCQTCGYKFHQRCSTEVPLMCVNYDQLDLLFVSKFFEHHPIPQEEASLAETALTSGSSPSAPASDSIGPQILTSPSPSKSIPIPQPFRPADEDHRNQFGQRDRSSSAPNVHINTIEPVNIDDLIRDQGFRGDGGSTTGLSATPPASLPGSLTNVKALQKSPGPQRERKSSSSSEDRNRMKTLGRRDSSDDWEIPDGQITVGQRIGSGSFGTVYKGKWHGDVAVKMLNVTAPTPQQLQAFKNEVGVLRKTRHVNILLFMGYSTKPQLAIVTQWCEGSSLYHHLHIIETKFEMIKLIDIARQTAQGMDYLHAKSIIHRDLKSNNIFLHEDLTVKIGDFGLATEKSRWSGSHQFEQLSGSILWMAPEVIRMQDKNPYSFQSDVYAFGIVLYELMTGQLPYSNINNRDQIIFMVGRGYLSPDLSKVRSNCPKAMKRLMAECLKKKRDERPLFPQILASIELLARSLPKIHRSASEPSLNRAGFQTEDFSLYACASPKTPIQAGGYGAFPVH
Procedure, shortened: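 Steps: seed HiBiT-tagged A375 clone 1F10 cells; incubate 24 h, 37 °C, 5% CO2; add compound (11 half-log points from 1 μM, 0.2% DMSO); lyse with HiBiT detection reagent plus LgBiT for 10 min; read luminescence; fit % protein remaining against concentration.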

BRAF G466V = molecular target: T2, BRAF G466V (Homo sapiens, UniProt P15056, G466V); assay: BRAF HiBiT degradation assay, C-terminal HiBiT-tagged BRAF G466V overexpressed in HCT-116 BRAF−/− cells (clone 8), Nano-Glo HiBiT Lytic assay
T2 construct: Horizon Discovery (HCT-116 BRAF−/− cells); host or cells: HCT-116 BRAF−/− cells, clone 8, lentiviral transduction
T2 sequence (P15056 whole entry G466V): as the sequence (P15056 whole entry V600E, the tested form may be a part) above, with G466V, E600V counted along it
Procedure, shortened: (§1)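 We quantified degradation of the C-terminally HiBiT-tagged, overexpressed mutant by lytic luminescence, normalizing to DMSO-treated cells with wild-type HCT-116 background subtracted. Dose series ran from 1 μM to 0.01 nM at 0.2% DMSO. Observed Dmax is % degraded at maximal effect.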

BRAF G469A = molecular target: T3, BRAF G469A (Homo sapiens, UniProt P15056, G469A); assay: BRAF HiBiT degradation assay, C-terminal HiBiT-tagged BRAF G469A overexpressed in HCT-116 BRAF−/− cells (clone 34), Nano-Glo HiBiT Lytic assay
T3 construct: Horizon Discovery (HCT-116 BRAF−/− cells); host or cells: HCT-116 BRAF−/− cells, clone 34, lentiviral transduction
T3 sequence (P15056 whole entry G469A): as the sequence (P15056 whole entry V600E, the tested form may be a part) above, with G469A, E600V counted along it
Procedure, shortened: as §1

BRAF D594G = molecular target: T4, BRAF D594G (Homo sapiens, UniProt P15056, D594G); assay: BRAF HiBiT degradation assay, C-terminal HiBiT-tagged BRAF D594G overexpressed in HCT-116 BRAF−/− cells (clone 63), Nano-Glo HiBiT Lytic assay
T4 construct: Horizon Discovery (HCT-116 BRAF−/− cells); host or cells: HCT-116 BRAF−/− cells, clone 63, lentiviral transduction
T4 sequence (P15056 whole entry D594G): as the sequence (P15056 whole entry V600E, the tested form may be a part) above, with D594G, E600V counted along it
Procedure, shortened: as §1

[1] = A375 (BRAF V600E, Class 1), DC50 at 50% degradation
[2] = A375 (BRAF V600E, Class 1), observed Dmax, % protein degraded relative to DMSO control
[3] = BRAF G466V (Class 3), HCT-116 BRAF−/− cells, DC50 at 50% degradation
[4] = BRAF G466V (Class 3), HCT-116 BRAF−/− cells, observed Dmax relative to DMSO control
[5] = BRAF G469A (Class 2), HCT-116 BRAF−/− cells, DC50 at 50% degradation
[6] = BRAF G469A (Class 2), HCT-116 BRAF−/− cells, observed Dmax relative to DMSO control
[7] = BRAF D594G (Class 3), HCT-116 BRAF−/− cells, DC50 at 50% degradation
[8] = BRAF D594G (Class 3), HCT-116 BRAF−/− cells, observed Dmax relative to DMSO control
[9] = A375 (BRAF V600E), DC50 at 50%: fitted conc. at Y=50
[10] = A375 (BRAF V600E), percentage protein degraded at maximal compound effect relative to DMSO
[11] = BRAF G466V, DC50 at 50%: fitted conc. at Y=50
[12] = HCT-116, BRAF G466V, percentage protein degraded at maximal compound effect relative to DMSO
[13] = Class 2, BRAF G469A, DC50 at 50%: fitted conc. at Y=50
[14] = HCT-116, Class 2, BRAF G469A, percentage protein degraded at maximal compound effect relative to DMSO
[15] = BRAF D594G, DC50 at 50%: fitted conc. at Y=50
[16] = HCT-116, BRAF D594G, percentage protein degraded at maximal compound effect relative to DMSO

Row | Compound | DC50 (BRAF V600E; [1]) [nM] | Dmax (BRAF V600E; [2]) [%] | DC50 (BRAF G466V; [3]) [nM] | Dmax (BRAF G466V; [4]) [%] | DC50 (BRAF G469A; [5]) [nM] | Dmax (BRAF G469A; [6]) [%] | DC50 (BRAF D594G; [7]) [nM] | Dmax (BRAF D594G; [8]) [%] | DC50 (BRAF V600E; [9]) [nM] | Dmax (BRAF V600E; [10]) [%] | DC50 (BRAF G466V; [11]) [nM] | Dmax (BRAF G466V; [12]) [%] | DC50 (BRAF G469A; [13]) [nM] | Dmax (BRAF G469A; [14]) [%] | DC50 (BRAF D594G; [15]) [nM] | Dmax (BRAF D594G; [16]) [%]
1 | CCN(C)S(=O)(=O)Nc1cc(F)cc(-c2cn(-c3ccc(N4CCN(CC5CCN(c6ccc([C@H]7CCC(=O)NC7=O)cc6)CC5)CC4)cc3)nc2-c2ccncc2)c1F [Compound 377, (3R)-3-(4-{4-[(4-{4-[4-(3-{[ethyl(methyl)sulfamoyl]amino}-2,5-difluorophenyl)-3-(pyridin-4-yl)-1H-pyrazol-1-yl]phenyl}piperazin-1-yl)methyl]piperidin-1-yl}phenyl)piperidine-2,6-dione] | 10 to 50 | > 70 | 10 to 50 | > 70 | < 10 | 30 to 70 | 10 to 50 | 30 to 70 | – | – | – | – | – | – | – | –
2 | CCCS(=O)(=O)Nc1cccc(-c2nc(-c3ccc(C4CCN(CC5CCN(c6ccc([C@@H]7CCC(=O)NC7=O)cc6)CC5)CC4)cc3)sc2-c2ccnc(N)n2)c1F [Compound 192, N-{3-[5-(2-aminopyrimidin-4-yl)-2-(4-{1-[(1-{4-[(3S)-2,6-dioxopiperidin-3-yl]phenyl}piperidin-4-yl)methyl]piperidin-4-yl}phenyl)-1,3-thiazol-4-yl]-2-fluorophenyl}propane-1-sulfonamide] | – | – | – | – | – | – | – | – | 10 to 50 | > 70 | > 500 | 30 to 70 | > 500 | < 30 | > 500 | 30 to 70
3 | CCCS(=O)(=O)Nc1cccc(-c2cn(-c3ccc(C4CCN(CC5CCN(c6ccc(C7CCC(=O)NC7=O)c(F)c6)CC5)CC4)cc3)nc2-c2ccncc2)c1F (racemic) [Compound 23, Rac-N-{3-[1-(4-{1-[(1-{4-[(3R)-2,6-dioxopiperidin-3-yl]-3-fluorophenyl}piperidin-4-yl)methyl]piperidin-4-yl}phenyl)-3-(pyridin-4-yl)-1H-pyrazol-4-yl]-2-fluorophenyl}propane-1-sulfonamide] | – | – | – | – | – | – | – | – | 10 to 50 | > 70 | 10 to 50 | 30 to 70 | > 500 | < 30 | > 500 | 30 to 70
4 | CCCS(=O)(=O)Nc1cccc(-c2nc(C(C)(C)C)sc2-c2ccnc(Nc3cnn(C4CCN(C(=O)[C@H]5CC[C@H](Oc6ccc(C7CCC(=O)NC7=O)cc6)CC5)CC4)c3)n2)c1F (mixture of isomers) [Compound 110, N-[3-(2-tert-butyl-5-{2-[(1-{1-[(1r,4r)-4-{4-[(3RS)-2,6-dioxopiperidin-3-yl]phenoxy}cyclohexanecarbonyl]piperidin-4-yl}-1H-pyrazol-4-yl)amino]pyrimidin-4-yl}-1,3-thiazol-4-yl)-2-fluorophenyl]propane-1-sulfonamide] | – | – | – | – | – | – | – | – | < 10 | 30 to 70 | > 500 | < 30 | > 500 | < 30 | > 500 | < 30
5 | CCCS(=O)(=O)Nc1cccc(-c2nc(-c3ccc(C4CCN(C(=O)CC5CCN(c6ccc(C7CCC(=O)NC7=O)cn6)CC5)CC4)cc3)sc2-c2ccnc(N)n2)c1F (racemic) [Compound 207, Rac-N-{3-[5-(2-aminopyrimidin-4-yl)-2-(4-{1-[2-(1-{5-[(3R)-2,6-dioxopiperidin-3-yl]pyridin-2-yl}piperidin-4-yl)acetyl]piperidin-4-yl}phenyl)-1,3-thiazol-4-yl]-2-fluorophenyl}propane-1-sulfonamide] | – | – | – | – | – | – | – | – | 10 to 50 | > 70 | > 500 | 30 to 70 | > 500 | 30 to 70 | > 500 | 30 to 70
6 | O=C1CC[C@H](c2ccc(N3CCC(CN4CCN(c5ccc(-n6cc(-c7cc(Cl)cc(NS(=O)(=O)N8CCCC8)c7F)c(-c7ccncc7)n6)cc5)CC4)CC3)nc2)C(=O)N1 [Compound 285, N-{5-chloro-3-[1-(4-{4-[(1-{5-[(3R)-2,6-dioxopiperidin-3-yl]pyridin-2-yl}piperidin-4-yl)methyl]piperazin-1-yl}phenyl)-3-(pyridin-4-yl)-1H-pyrazol-4-yl]-2-fluorophenyl}pyrrolidine-1-sulfonamide] | < 10 | > 70 | < 10 | > 70 | < 10 | > 70 | < 10 | 30 to 70 | – | – | – | – | – | – | – | –
7 | O=C1CC[C@@H](c2ccc(N3CCC(CN4CCN(c5ccc(-n6cc(-c7cc(Cl)cc(NS(=O)(=O)N8CCCC8)c7F)c(-c7ccncc7)n6)nc5)CC4)CC3)nc2)C(=O)N1 [Compound 383, N-{5-chloro-3-[1-(5-{4-[(1-{5-[(3S)-2,6-dioxopiperidin-3-yl]pyridin-2-yl}piperidin-4-yl)methyl]piperazin-1-yl}pyridin-2-yl)-3-(pyridin-4-yl)-1H-pyrazol-4-yl]-2-fluorophenyl}pyrrolidine-1-sulfonamide] | < 10 | > 70 | < 10 | > 70 | 10 to 50 | > 70 | < 10 | > 70 | – | – | – | – | – | – | – | –
8 | CCCS(=O)(=O)Nc1cccc(-c2nc(C3CCC4(CC3)CCN(C(=O)C3CCN(c5ccc(C(=O)NC6CCC(=O)NC6=O)nc5)CC3)CC4)sc2-c2ccnc(N)n2)c1F (racemic) [Compound 252, Rac-5-(4-{9-[5-(2-aminopyrimidin-4-yl)-4-[2-fluoro-3-(propane-1-sulfonamido)phenyl]-1,3-thiazol-2-yl]-3-azaspiro[5.5]undecane-3-carbonyl}piperidin-1-yl)-N-[(3R)-2,6-dioxopiperidin-3-yl]pyridine-2-carboxamide] | 10 to 50 | > 70 | > 500 | < 30 | > 500 | < 30 | > 500 | < 30 | – | – | – | – | – | – | – | –
9 | CCCS(=O)(=O)Nc1cccc(-c2nc(C(C)(C)C)sc2-c2ccnc(NC3CC4(C3)CN(CC3CCN(c5ccc(C(=O)NC6CCC(=O)NC6=O)cc5)CC3)C4)n2)c1F (racemic) [Compound 170, Rac-4-[4-({6-[(4-{2-tert-butyl-4-[2-fluoro-3-(propane-1-sulfonamido)phenyl]-1,3-thiazol-5-yl}pyrimidin-2-yl)amino]-2-azaspiro[3.3]heptan-2-yl}methyl)piperidin-1-yl]-N-[(3R)-2,6-dioxopiperidin-3-yl]benzamide] | – | – | – | – | – | – | – | – | 50 to 500 | 30 to 70 | > 500 | < 30 | > 500 | < 30 | > 500 | < 30
10 | CCN(C)S(=O)(=O)Nc1cccc(-c2nc(C3CCN(C(=O)C4CCN(C(=O)C5CCN(c6ccc(C7CCC(=O)NC7=O)cn6)CC5)CC4)CC3)sc2-c2ccnc(N)n2)c1F (racemic) [Compound 209, Rac-(3S)-3-{6-[4-(4-{4-[5-(2-aminopyrimidin-4-yl)-4-(3-{[ethyl(methyl)sulfamoyl]amino}-2-fluorophenyl)-1,3-thiazol-2-yl]piperidine-1-carbonyl}piperidine-1-carbonyl)piperidin-1-yl]pyridin-3-yl}piperidine-2,6-dione] | – | – | – | – | – | – | – | – | < 10 | > 70 | < 10 | > 70 | 10 to 50 | 30 to 70 | < 10 | > 70
11 | CCCS(=O)(=O)Nc1cccc(-c2cn(-c3ccc(N4CCN(CC5CCN(c6ccc(C7CCC(=O)NC7=O)cc6)CC5)CC4)cc3)nc2-c2ccncc2)c1F (racemic) [Compound 21, Rac-N-{3-[1-(4-{4-[(1-{4-[(3R)-2,6-dioxopiperidin-3-yl]phenyl}piperidin-4-yl)methyl]piperazin-1-yl}phenyl)-3-(pyridin-4-yl)-1H-pyrazol-4-yl]-2-fluorophenyl}propane-1-sulfonamide] | – | – | – | – | – | – | – | – | 10 to 50 | > 70 | 10 to 50 | 30 to 70 | > 500 | 30 to 70 | > 500 | 30 to 70
